pKi: −log10 of the molar value.
Target: T1, recombinant human NAPRT (nicotinic acid phosphoribosyltransferase) (Homo sapiens, UniProt Q6XQN6)
T1 construct: dimer
T1 sequence (Q6XQN6 1-538): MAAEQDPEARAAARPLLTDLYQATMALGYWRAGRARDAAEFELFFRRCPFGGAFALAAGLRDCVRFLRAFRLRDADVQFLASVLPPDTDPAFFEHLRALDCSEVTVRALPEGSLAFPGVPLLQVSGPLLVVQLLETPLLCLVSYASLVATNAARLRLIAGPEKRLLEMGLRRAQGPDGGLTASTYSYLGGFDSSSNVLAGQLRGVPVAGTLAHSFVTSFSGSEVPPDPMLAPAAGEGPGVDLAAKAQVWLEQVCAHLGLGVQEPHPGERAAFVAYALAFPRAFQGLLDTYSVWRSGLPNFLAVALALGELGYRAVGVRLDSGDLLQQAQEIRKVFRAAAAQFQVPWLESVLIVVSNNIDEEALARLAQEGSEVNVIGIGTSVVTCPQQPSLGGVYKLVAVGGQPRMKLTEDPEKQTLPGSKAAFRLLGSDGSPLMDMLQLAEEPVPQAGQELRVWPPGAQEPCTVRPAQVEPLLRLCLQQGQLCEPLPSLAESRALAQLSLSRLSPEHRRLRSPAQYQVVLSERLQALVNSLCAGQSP
Assay: HPLC of NAMN formation, Michaelis-Menten fit
Assay type: biochemical
Description: HPLC of NAMN formation, Michaelis-Menten fit on recombinant human NAPRT (nicotinic acid phosphoribosyltransferase)

| pKi | Compound |
| --- | --- |
| 2.64 | O=C(N[C@@H](C(=O)c1ccccc1)n1cnccc1=O)c1ccccc1 [compound 1] |
| 3.51 | O=C(O)c1cnccc1O [compound 8] |
| 3.53 | O=C(O)c1cnsn1 [compound 19] |

Reference: paper PMC9318686, “Identification of NAPRT Inhibitors with Anti-Cancer Properties by In Silico Drug Discovery” (Pharmaceuticals, 2022)
